Patent publication US20170334899A1, “AMINO-SUBSTITUTED ISOTHIAZOLES” (Bayer Pharma Aktiengesellschaft, priority 2014, published 2017)
Several values for one entry are separate records, joined by “and”; a condition that tells them apart may be missing. Equal values may be shown once.

How the values were obtained:
CDK2/CycE = target: T1, CDK2/CycE (Homo sapiens, UniProt P24941); assay: CDK2/CycE kinase assay (TR-FRET); type: biochemical; conditions: avg, read-out: CDK2 avg (IC50 [mol/l])
T1 construct: GST; purchased ProQinase GmbH (Freiburg, Germany); host or cells: insect cells (Sf9)
Method in brief: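 GST-tagged human CDK2 and CycE from Sf9 cells, preincubated 15 min with compound, then 25 min at 22° C. with 10 μM ATP and 0.75 μM biotinylated Rb-derived peptide (final). Phospho-substrate read by TR-FRET (anti-pRB pSer807/pSer811, Eu anti-mouse IgG, streptavidin-XL665), 665/620 nm ratio, normalised to no-inhibitor and no-enzyme controls.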

[1] = target: T2, catalytic domain of human Bub1 (amino acids 704-1085) (Homo sapiens, UniProt O43683); assay: Bub1 kinase assay (TR-FRET); type: biochemical; conditions: 10 μM ATP, avg, read-out: Bub1 avg (IC50 [mol/l])
T2 construct: catalytic domain of human Bub1 (amino acids 704-1085); His6 (N); made in house; host or cells: insect cells (Hi5)
T2 sequence (O43683 704-1085): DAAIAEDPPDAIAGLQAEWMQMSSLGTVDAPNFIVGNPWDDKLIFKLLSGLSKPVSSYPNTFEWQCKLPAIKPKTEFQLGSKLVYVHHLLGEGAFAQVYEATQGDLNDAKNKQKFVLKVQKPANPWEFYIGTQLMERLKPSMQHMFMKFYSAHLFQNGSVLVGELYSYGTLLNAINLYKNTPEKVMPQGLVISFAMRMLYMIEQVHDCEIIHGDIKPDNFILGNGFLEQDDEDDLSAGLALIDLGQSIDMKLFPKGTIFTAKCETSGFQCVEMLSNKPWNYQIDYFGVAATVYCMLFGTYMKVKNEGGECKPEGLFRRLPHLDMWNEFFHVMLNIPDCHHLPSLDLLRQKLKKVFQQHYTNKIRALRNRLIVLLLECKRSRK
Method in brief: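 Readout is the 665/620 nm TR-FRET ratio from anti-phosphoserine antibody, Eu-labelled anti-mouse IgG and streptavidin-XL665, scaled between no-enzyme and uninhibited controls. Reaction: 1 μM biotinylated peptide, 10 μM ATP, 60 min, 22 °C, after 15 min compound preincubation with His6-Bub1 (704-1085, insect-expressed, ~200 ng/ml).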

SMILES | IC50 (CDK2/CycE) [µM] | IC50 [1]
Cc1nsc(Nc2cnc(C(F)(F)F)cn2)c1C(=O)Nc1ccc(C(=O)NCCN2CCCC(F)C2)cc1 (stereo not drawn) [Example 213, N-(4-{[2-(3-fluoropiperidin-1-yl)ethyl]carbamoyl}phenyl)-3-methyl-5-{[5-(trifluoromethyl)pyrazin-2-yl]amino}-1,2-thiazole-4-carboxamide] | > 20 | 17 µM
Cc1nsc(Nc2cnc(C(F)(F)F)cn2)c1C(=O)Nc1ccc(OCCNC(=O)OC(C)(C)C)c(F)c1 [Example 215, tert-butyl [2-(2-fluoro-4-{[(3-methyl-5-{[5-(trifluoromethyl)pyrazin-2-yl]amino}-1,2-thiazol-4-yl)carbonyl]amino}phenoxy)ethyl]carbamate] | > 20 | > 20 µM
Cc1nsc(Nc2cncc(C(F)(F)F)n2)c1C(=O)Nc1ccc(OCCNC(=O)OC(C)(C)C)c(F)c1 [Example 216, tert-butyl [2-(2-fluoro-4-{[(3-methyl-5-{[6-(trifluoromethyl)pyrazin-2-yl]amino}-1,2-thiazol-4-yl)carbonyl]amino}phenoxy)ethyl]carbamate] | > 20 | > 20 µM
Cc1nsc(Nc2cnc(C(F)(F)F)cn2)c1C(=O)Nc1ccc(OC2CCN(C(=O)OC(C)(C)C)CC2)c(F)c1 [Example 217, tert-butyl 4-(2-fluoro-4-{[(3-methyl-5-{[5-(trifluoromethyl)pyrazin-2-yl]amino}-1,2-thiazol-4-yl)carbonyl]amino}phenoxy)piperidine-1-carboxylate] | > 20 | > 20 µM
Cc1nsc(Nc2cncc(C(F)(F)F)n2)c1C(=O)Nc1ccc(OC2CCN(C(C)C)CC2)nc1 [Example 218, N-{6-[(1-isopropylpiperidin-4-yl)oxy]pyridin-3-yl}-3-methyl-5-{[6-(trifluoromethyl)pyrazin-2-yl]amino}-1,2-thiazole-4-carboxamide] | > 20 | > 20 µM
Cc1nsc(Nc2cncc(C(F)(F)F)n2)c1C(=O)Nc1ccc(OC2CCN(C)CC2)nc1 [Example 219, 3-methyl-N-{6-[(1-methylpiperidin-4-yl)oxy]pyridin-3-yl}-5-{[6-(trifluoromethyl)pyrazin-2-yl]amino}-1,2-thiazole-4-carboxamide] | > 20 | > 20 µM
Cc1nsc(Nc2cnc(C(F)(F)F)cn2)c1C(=O)Nc1ccc(OC2CCN(C)CC2)nc1 [Example 220, 3-methyl-N-{6-[(1-methylpiperidin-4-yl)oxy]pyridin-3-yl}-5-{[5-(trifluoromethyl)pyrazin-2-yl]amino}-1,2-thiazole-4-carboxamide] | > 20 | > 20 µM
Cc1nsc(Nc2cnc(C(F)(F)F)cn2)c1C(=O)Nc1ccc(OCCN)c(F)c1 [Example 221, 3-N-[4-(2-aminoethoxy)-3-fluorophenyl]-3-methyl-5-{[5-(trifluoromethyl)pyrazin-2-yl]amino}-1,2-thiazole-4-carboxamide] | > 20 | > 20 µM
Cc1nsc(Nc2cncc(C(F)(F)F)n2)c1C(=O)Nc1ccc(C(=O)NC2CCN(C(=O)OC(C)(C)C)CC2)cc1 [Example 222, tert-butyl 4-[(4-{[(3-methyl-5-{[6-(trifluoromethyl)pyrazin-2-yl]amino}-1,2-thiazol-4-yl)carbonyl]amino}benzoyl)amino] piperidine-1-carboxylate] | > 20 | > 20 µM
Cc1nsc(Nc2cncc(C(F)(F)F)n2)c1C(=O)Nc1ccc(OC2CCN(CCF)CC2)c(F)c1 [Example 223, N-(3-fluoro-4-{[1-(2-fluoroethyl)piperidin-4-yl]oxy}phenyl)-3-methyl-5-{[6-(trifluoromethyl)pyrazin-2-yl]amino}-1,2-thiazole-4-carboxamide] | > 20 | > 20 µM
Cc1nsc(Nc2cncc(C(F)(F)F)n2)c1C(=O)Nc1ccc(OC2CCN(CC(F)F)CC2)c(F)c1 [Example 224, N-(4-{[1-(2,2-difluoroethyl)piperidin-4-yl]oxy}-3-fluorophenyl)-3-methyl-5-{[6-(trifluoromethyl)pyrazin-2-yl]amino}-1,2-thiazole-4-carboxamide] | > 20 | > 20 µM
Cc1nsc(Nc2cncc(C(F)(F)F)n2)c1C(=O)Nc1ccc(C(=O)NC2CCN(CC(F)F)CC2)cc1 [Example 225, N-N-(4-{[1-(2,2-difluoroethyl)piperidin-4-yl]carbamoyl}phenyl)-3-methyl-5-{[6-(trifluoromethyl)pyrazin-2-yl]amino}-1,2-thiazole-4-carboxamide] | > 20 | > 20 µM
Cc1nsc(Nc2cncc(C(F)(F)F)n2)c1C(=O)Nc1ccc(OCC2CCN(C(=O)OC(C)(C)C)CC2)nc1 [Example 226, tert-butyl 4-{[(5-{[(3-methyl-5-{[6-(trifluoromethyl)pyrazin-2-yl]amino}-1,2-thiazol-4-yl)carbonyl]amino}pyridin-2-yl)oxy]methyl}piperidine-1-carboxylate] | > 20 | > 20 µM
Cc1nsc(Nc2cnc(C(F)(F)F)cn2)c1C(=O)Nc1ccc(OCC2CCN(C(=O)OC(C)(C)C)CC2)nc1 [Example 227, tert-butyl 4-{[(5-{[(3-methyl-5-{[5-(trifluoromethyl)pyrazin-2-yl]amino}-1,2-thiazol-4-yl)carbonyl]amino}pyridin-2-yl)oxy]methyl}piperidine-1-carboxylate] | > 20 | > 20 µM
Cc1nsc(Nc2cnc(C(F)(F)F)cn2)c1C(=O)Nc1ccc(OCC2CCCN(C(=O)OC(C)(C)C)C2)nc1 (stereo not drawn) [Example 228, tert-butyl 3-{[(5-{[(3-methyl-5-{[5-(trifluoromethyl)pyrazin-2-yl]amino}-1,2-thiazol-4-yl)carbonyl]amino}pyridin-2-yl)oxy]methyl}piperidine-1-carboxylate] | > 20 | > 20 µM

Continued, values first:

IC50 (CDK2/CycE) [µM] | IC50 [1] | SMILES
> 20 | > 20 µM | Cc1nsc(Nc2cnc3ccccc3n2)c1C(=O)Nc1ccc(C(N)=O)c(F)c1 [Example 201, N-(4-carbamoyl-3-fluorophenyl)-3-methyl-5-(quinoxalin-2-ylamino)-1,2-thiazole-4-carboxamide]
> 20 | > 20 µM | Cc1nsc(Nc2cnc3ccccc3n2)c1C(=O)Nc1ccc(F)c(C(N)=O)c1 [Example 202, N-(3-carbamoyl-4-fluorophenyl)-3-methyl-5-(quinoxalin-2-ylamino)-1,2-thiazole-4-carboxamide]
> 20 | > 20 µM | Cc1nsc(Nc2ccc(C#N)cn2)c1C(=O)Nc1ccc(F)c(C(N)=O)c1 [Example 203, N-(3-carbamoyl-4-fluorophenyl)-5-[(5-cyanopyridin-2-yl)amino]-3-methyl-1,2-thiazole-4-carboxamide]
> 20 | > 20 µM and 16 µM | Cc1nsc(Nc2cncc(C(F)(F)F)n2)c1C(=O)Nc1ccc(F)c(C(N)=O)c1 [Example 204, N-(3-carbamoyl-4-fluorophenyl)-3-methyl-5-{[6-(trifluoromethyl)pyrazin-2-yl]amino}-1,2-thiazole-4-carboxamide]
> 20 | > 20 µM | CC(=O)Nc1cc(NC(=O)c2c(C)nsc2Nc2cnccn2)ccc1F [Example 205, N-(3-acetamido-4-fluorophenyl)-3-methyl-5-(pyrazin-2-ylamino)-1,2-thiazole-4-carboxamide]
> 20 | 13 µM | CC(=O)Nc1cc(NC(=O)c2c(C)nsc2Nc2cnc(C(F)(F)F)cn2)ccc1F [Example 206, N-(3-acetamido-4-fluorophenyl)-3-methyl-5-{[5-(trifluoromethyl)pyrazin-2-yl]amino}-1,2-thiazole-4-carboxamide]
> 20 | > 20 µM | CNC(=O)c1ccc(NC(=O)c2c(C)nsc2Nc2cnc3ccccc3n2)cc1F [Example 207, N-[3-fluoro-4-(methylcarbamoyl)phenyl]-3-methyl-5-(quinoxalin-2-ylamino)-1,2-thiazole-4-carboxamide]
> 20 | > 20 µM | CNC(=O)c1ccc(NC(=O)c2c(C)nsc2Nc2ccc(C#N)cn2)cc1F [Example 208, 5-[(5-cyanopyridin-2-yl)amino]-N-[3-fluoro-4-(methylcarbamoyl)phenyl]-3-methyl-1,2-thiazole-4-carboxamide]
> 20 | > 20 µM | Cc1nsc(Nc2cncc(C(F)(F)F)n2)c1C(=O)Nc1ccc(OCCCN)nc1 [Example 209, N-[6-(3-aminopropoxy)pyridin-3-yl]-3-methyl-5-{[6-(trifluoromethyl)pyrazin-2-yl]amino}-1,2-thiazole-4-carboxamide]
> 20 | > 20 µM | CNS(=O)(=O)c1ccc(NC(=O)c2c(C)nsc2Nc2cc(C#N)ccn2)cc1 [Example 210, 5-[(4-cyanopyridin-2-yl)amino]-3-methyl-N-[4-(methylsulfamoyl)phenyl]-1,2-thiazole-4-carboxamide]
15 | 4.3 µM | CNS(=O)(=O)c1ccc(NC(=O)c2c(C)nsc2Nc2cncc(C(F)(F)F)n2)cc1 [Example 211, 3-methyl-N-[4-(methylsulfamoyl)phenyl]-5-{[6-(trifluoromethyl)pyrazin-2-yl]amino}-1,2-thiazole-4-carboxamide]
> 20 | > 20 µM | CNS(=O)(=O)c1ccc(NC(=O)c2c(C)nsc2Nc2cnc(C(F)(F)F)cn2)cc1 [Example 212, 3-methyl-N-[4-(methylsulfamoyl)phenyl]-5-{[5-(trifluoromethyl)pyrazin-2-yl]amino}-1,2-thiazole-4-carboxamide]
